Laboratory results from patent US10421723B2, “2,3-diacylated, 2- and 3-mono-acylated alkylated imino sugars exhibiting glucosidase inhibition and their method of use” (priority 2016, dated 2019).

Experiments:
target viruses = details: cited from earlier work
[1] = Stability and conversion in simulated gastric fluid; type: in vitro ADME; details: 4 h, 37° C.
Experimental: The stability of exemplary compounds of the present invention and their conversion to their active derivatives in simulated gastric fluid is evaluated. The working solutions of test compounds and control compound erythromycin were prepared in DMSO at the concentration of 500 μM. 2 μL of the working solution and 198 μL of simulated gastric fluids were added into centrifuge tubes to achieve a final concentration of […] incubated at 37° C. water bath with shaking at approximately 60 rpm. One of the centrifuge tubes was taken at designated time points including 0, 30, 60, 90 and 120 minutes. The assay was performed in duplicate. The reaction was stopped by adding 5 volumes of cold quench solution (acetonitrile containing internal standards (IS, 100 nM Alprazolam, 500 nM Labetalol and 2 μM Ketoprofen)) to the spiked simulated gastric fluids samples at the appointed time points. Another time 0 samples of parent compound were also prepared, and they were used to calculate the conversion percentages of prodrugs to parent compound (used as T0-2). Samples were vortexed for 2 minutes and centrifuged at 20,000 g for 15 minutes at 4° C. to precipitate protein. And then 50 μL of the supernatant was transferred to a new 96-well plate with 100 μL quench solution and 100 μL water for LC-MS/MS analysis.

[2] = Stability and conversion in simulated intestinal fluids; type: in vitro ADME; details: 4 h, 5 μM, 37° C.
Experimental: The stability of exemplary compounds of the present invention and their conversion to active derivatives in simulated intestinal fluids is evaluated. The working solutions of test compounds and control compound chlorambucil were prepared in DMSO at the concentration of 500 μM. 2 μL of the working solution and 198 μL of simulated intestinal fluids were added into centrifuge tubes to achieve a final concentration of 5 μM, and incubated at 37° C. water bath with shaking at approximately 60 rpm. One of the centrifuge tubes was taken at designated time points including 0, 1, 2, 3 and 4 hours. The assay was performed in duplicate. The reaction was stopped by adding 5 volumes of cold quench solution (acetonitrile containing internal standards (IS, 100 nM Alprazolam, 500 nM Labetalol and 2 μM Ketoprofen)) to the spiked simulated intestinal fluids samples at the appointed time points. Another time 0 samples of parent compound were also prepared, and they were used to calculate the conversion percentages of prodrugs to parent compound (used as T0-2). Samples were vortexed for 2 minutes and centrifuged at 20,000 g for 15 minutes at 4° C. to precipitate protein. And then 50 μL of the supernatant was transferred to a new 96-well plate with 100 μL quench solution and 100 μL water for LC-MS/MS analysis.

Structure (SMILES)	concentrations to achieve EC50 values in tissue culture against their target viruses (target viruses)	Stability in Gastric fluids, Remaining [1]	Stability in Intestinal Fluid, Remaining [2]
CCCC(=O)O[C@H]1CN2CC[C@H](O)[C@@H]2[C@@H](O)[C@@H]1O [Celgosivir]	near millimolar	–	–
CCCCN1C[C@H](O)[C@@H](O)[C@H](O)[C@H]1CO [NBDNJ, N-butyl-DNJ]	near millimolar	–	–
CCCCOC(=O)OC1CN(CCCCCCN(C(=O)NC(C)(C)C)C2CCCCC2)C(CO)C(O)C1OC(=O)OCCCC (stereo not shown) [XXVII(a)]	–	93%	65.7%
CCCCOC(=O)OC1CN(CCCCCCN(C(=O)NC(C)(C)C)C2CCCCC2)C(CO)C(O)C1O (stereo not shown) [XXVIII(a)]	–	98.1%	62.7%
CC(C)COC(=O)OC1CN(CCCCCCN(C(=O)NC(C)(C)C)C2CCCCC2)C(CO)C(O)C1O (stereo not shown) [XXVIII(b)]	–	89.2%	70.9%
CC(NC(=O)OC(C)(C)C)C(=O)OC1C(O)CN(CCCCCCN(C(=O)NC(C)(C)C)C2CCCCC2)C(CO)C1O (stereo not shown) [XXX(a)]	–	81.1%	30.7%
